Series [1] deals with basophils in human whole blood (CD63 expression). As to the kind of experiment: 384-Well HTBS Whole Blood CD63 Basophil Assay (25% blood). In kind it is cell-based. Particulars: for IC50: comparison table with known compounds, human whole blood basophils, head prints IC50; for EC50: human whole blood (25% blood), anti-FceRI mAb activation, CD63 on CCR3 positive cells. How it is done: Syk activity was assessed in relation to reduced activation of basophils as measured by the expression of CD63 in a human whole blood basophil cellular assay (25% blood). Basophil activation was measured in human whole blood using the Flow CAST kit (Buhlmann Laboratories AG, Baselstrasse, Switzerland) following the protocol provided by the manufacturer with minor modifications. Fresh human whole blood in heparin was collected and delivered same day (AllCells, Emeryville, Calif.). Whole blood samples were incubated with either DMSO (1% final) or serial diluted compounds in DMSO for 60 minutes at 37° C. Basophils were activated using the anti-FceRI mAb and stained with anti-CD63-FITC and anti-CCR3-PE for 20 minutes at 37° C. (per well: 50 μL of whole blood was mixed with 113 μL of stimulation buffer, 8.5 μL anti-FceRI mAb, 8.5 μL Ab stain CCR3-PE/CD63-FITC). Cells were centrifuged at 1000×g for 18 minutes and 150 μL/well of supernatant removed. Red blood cells were lysed and cells fixed by 2 rounds of cell lysing: resuspending cell pellets with 150 μL/well 1× lysis buffer, incubating at room temperature for 10 minutes, and collecting cell pellets by centrifuging for 1200 rpms for 5 minutes. Cells were washed with 150 µL/well wash buffer twice, and resuspended in a final volume of 75 µL/well of wash buffer for either immediate flow cytometery analysis or overnight incubation at 4° C. followed by flow cytometry analysis. Degranulation (basophil activation) was detected by CD63 surface expression on CCR3 positive cells. The percent CD63 positive cells within the gated basophil population were determined and normalized to the DMSO (negative control) and control compound (positive control).

The next series relates to human hepatocytes. Kind of series: Human Hepatocyte Stability Assay (predicted hepatocyte clearance). In kind it is in vitro ADME. How it is done: The human […] stability of the compounds as predicted hepatocyte clearance in L/hr/kg was assessed. Compounds to be tested were diluted to 200 μM (4 μl of 10 mM DMSO stock into 196 μl ACN:H2O (50:50). Propranolol was used as a positive control, and buffer only without hepatocytes as 0% control. These were further diluted 4 μl with 891 μl KHB buffer (InVitroGRO catalog number Z99074) to provide 2× dosing solution. To each well of 24 well plate, 250 μl of the 2× dosing solution was added to each well with 250 μl of hepatocytes cells (1×10^6 viable cells/ml per well) or KHB for control samples to achieve a final compound concentration of 1 μM during incubation. The final solvent concentration was 0.01% DMSO and 0.25% ACN. The culture plate was placed on a rocker and incubated at 37° C., 5% CO2. Samples were collected at time 0, 1, 3, and 6 hours. The loss of parent compound was determined using LC-MS methods against a standard curve.

Setting [2] is: comparison table with known compounds, predicted hepatocyte clearance (L/hr/kg).
Where [3] appears, read: predicted hepatocyte clearance, human hepatocytes, 1 μM compound, 0-6 hours.

The values that follow come from US10342794B2, “Substituted imidazo[1,2-a]pyrazines as Syk inhibitors” (Gilead Sciences, Inc., priority 2013, dated 2019).

As to `COc1ccc(Nc2nc(-c3cccc(N)c3)cn3ccnc23)cc1OC` [6-(3-aminophenyl)-N-(3,4-dimethoxyphenyl)imidazo[1,2-a]pyrazin-8-amine, reference compound], 809 nM corresponded to half-maximal inhibition in series [1] (IC50). Besides, the “Hheps CL” value with human hepatocytes (setting [2]) is 4 mL/min/kg.
The like results for `Cc1ncc(-c2cn3ccnc3c(Nc3ccc(N4CCOCC4)cc3)n2)cc1N` [6-(5-amino-6-methylpyridin-3-yl)-N-(4-morpholinophenyl)imidazo[1,2-a]pyrazin-8-amine, reference compound] were, in that order, 250 nM and 13.3 mL/min/kg.
Regarding `Nc1cncc(-c2cn3ccnc3c(Nc3ccc(N4CCO[C@@H](CO)C4)cc3)n2)n1` [Ex.-3, (R)-(4-(4-((6-(6-aminopyrazin-2-yl)imidazo[1,2-a]pyrazin-8-yl)amino)phenyl)morpholin-2-yl)methanol], in series [1], the IC50 amounted to 63 nM and the concentration for a half-maximal effect (EC50) was 63 nM. The “Hheps CL” value in the series with human hepatocytes (setting [2]) is 1.5 mL/min/kg. Moreover, the “Hheps CL” value in the series on human hepatocytes (setting [3]) was 1.5 mL/min/kg.
In series [1], `Cc1c(-c2cncc(N)n2)nc(Nc2ccc(N3CCN(C4COC4)CC3)cc2)c2nccn12` [Ex.-4, 6-(6-aminopyrazin-2-yl)-5-methyl-N-(4-(4-(oxetan-3-yl)piperazin-1-yl)phenyl)imidazo[1,2-a]pyrazin-8-amine] gave an IC50 of 157 nM and an EC50 of 157 nM. For the same compound, the “Hheps CL” value in the series with human hepatocytes (setting [2]) is 1.3 mL/min/kg. Moreover, the “Hheps CL” value in the series with human hepatocytes (setting [3]) was 1.3 mL/min/kg.
The compound `Nc1cncc(-c2cn3ccnc3c(Nc3ccc(N4CCN(C5COC5)CC4)c(OCCO)c3)n2)n1` [Ex.-5, 2-(5-((6-(6-aminopyrazin-2-yl)imidazo[1,2-a]pyrazin-8-yl)amino)-2-(4-(oxetan-3-yl)piperazin-1-yl)phenoxy)ethanol] had a 50% inhibitory concentration (IC50) in series [1] of 120 nM. For the same compound, the response in series [1] was half-maximal at 120 nM (EC50). Besides, the “Hheps CL” value in the series with human hepatocytes (setting [2]) and in the series with human hepatocytes (setting [3]) was 1.2 mL/min/kg each time.
For `Nc1cncc(-c2cn3ccnc3c(Nc3ccc(N4CCN(CC(CO)CO)CC4)cc3)n2)n1` [Ex.-6, 2-((4-(4-((6-(6-aminopyrazin-2-yl)imidazo[1,2-a]pyrazin-8-yl)amino)phenyl)piperazin-1-yl)methyl)propane-1,3-diol], in series [1], the IC50 was determined as 128 nM and the EC50 is 128 nM. Moreover, the “Hheps CL” value in the series with human hepatocytes (setting [2]) is 1.3 mL/min/kg. Besides, the “Hheps CL” value with human hepatocytes (setting [3]) is 1.3 mL/min/kg.

For orientation: IC50 means the midpoint of a concentration-inhibition curve. Lower therefore signals higher potency. For orientation: EC50 means the concentration at which the effect is half-maximal. Low readings indicate greater potency, high ones weaker potency.
